Structures can show the parent of a compound that is named as a salt.
What was measured:
[1] = test system: patients suffering from perennial allergic rhinitis; experiment: phase III multicenter double-blind 3-week study in perennial allergic rhinitis; type: in vivo, human; conditions: for Mean of maximal 5-symptom scores, Visit 2: control visit one week after visit 1, investigators' 4-point scale 0-3; for global evaluation by the investigators: patients in categories "Good improvement" and "No more symptoms", grouped: end of treatment (visit 3), capsule morning and evening, 5-point scale; for Mean of maximal 5-symptom scores, Visit 1: enrolment visit, investigators' 4-point scale 0-3; for PDS0 (percentage of days with a maximal symptom score equal to 0), mean / PDS1 (percentage of days with a maximal symptom score inferior or equal to 1), mean: patients' daily record card, five symptoms, 3-week study
Procedure: (§1) The efficacy and safety of a composition of the invention were evaluated for the treatment of rhinitis, especially perennial and seasonal rhinitis, by the following phase III multicenter, double-blind studies. The composition of the invention was compared to:
(§2) For each study, patients enrolled were ranged in three therapeutic groups and were treated as follows:
(§3) The patients' clinical evaluations made by the investigators at the end of the studies were based on a 5-point scale (0=worsening; 1=no change; 2=slight improvement; 3=good improvement; 4=no more symptoms). The Cochran-Mantel-Haenszel test was used to compare the frequency distribution of the three groups, and for specific comparisons.
(§4) At home, patients had to fill a daily record card where the five following symptoms were evaluated: sneezing, runny nose, blocked nose, itchy nose and itchy eyes. The symptoms scores were based on a 4-point scale (0: absent; 1: mild; 2: moderate; 3: severe). […] Global comparisons were made using the Kruskal-Wallis test and specific comparisons were made with the Wilcoxon rank sum test.
(§5) Three visits were planned during the study: enrolment visit (Visit 1), control visit (Visit 2) one week after visit 1 and final visit (Visit 3). At visits 1 and 2, investigators evaluated the specific symptoms of allergic rhinitis (sneezing, rhinorrhea, nasal obstruction, nasal pruritus and ocular pruritus) using the 4-point scale (0: absent; 1: mild; 2: moderate; 3: severe). The rhinitis severity was evaluated by taking into account the maximal score of the five symptoms. The three groups were compared using the Cochran-Mantel-Haenszel test based on ranks.
(§6) The patients were asked about possible adverse events at each control visit. In each treatment group, adverse events were counted and grouped in classes. The frequency distributions of these adverse effect numbers were compared using the Cochran-Mantel-Haenszel test.
A total of 554 patients were enrolled in this 3-week study. These patients ranged in age from 12 to 67 years old. They had to suffer from perennial allergic rhinitis diagnosed at least one year prior to the study, with radio allergosorbent test (RAST) or prick-test positive to perennial allergens including dust, mites and/or animal danders. On enrolment day, patients had to have the following symptoms: nasal obstruction, sneezing and rhinorrhea.

[2] = test system: patients suffering from pollen-associated allergic rhinitis; experiment: phase III multicenter double-blind 2-week study in pollen-associated (seasonal) allergic rhinitis; type: in vivo, human; conditions: for Incidence of asthenia / Incidence of headache / Incidence of insomnia / Incidence of somnolence / proportion of patients with at least one adverse effect / PDS0 (percentage of days with a maximal symptom score equal to 0), mean / PDS1 (percentage of days with a maximal symptom score inferior or equal to 1), mean: 2-week study; for Mean of maximal 5-symptom scores, Visit 2: control visit one week after visit 1, investigators' 4-point scale 0-3; for global evaluation: patients in categories "Good improvement" and "No more symptoms", grouped: end of 2-week study, capsule morning and evening, 5-point scale; for Mean of maximal 5-symptom scores, Visit 1: enrolment visit, investigators' 4-point scale 0-3; for PDS0 (percentage of days with a maximal symptom score equal to 0), mean / PDS1 (percentage of days with a maximal symptom score inferior or equal to 1), mean: maximal score of five symptoms
Procedure: as §1, §2, §3, §4, §5, §6
A total of 687 patients enrolled in this 2-week study, their ages ranging from 12 to 67 years. They had to be suffering from pollen-associated allergic rhinitis, with a prick-test or a RAST positive to pollen. […] On enrolment day, the patients had to be experiencing nasal obstruction and at least two of the four following symptoms: sneezing, rhinorrhea, nasal pruritus, ocular pruritus.

SMILES	sedation, frequency of adverse event ([1]; comparison between the three groups)	Mean of maximal 5-symptom scores, Visit 2 [1]	global evaluation by the investigators: patients in categories "Good improvement" and "No more symptoms", grouped [1] [%]	Mean of maximal 5-symptom scores, Visit 1 [1]	PDS0 (percentage of days with a maximal symptom score equal to 0), mean [1] [%]	PDS1 (percentage of days with a maximal symptom score inferior or equal to 1), mean [1] [%]	Incidence of asthenia [2] [%]	Incidence of headache [2] [%]	Incidence of insomnia [2] [%]	Incidence of somnolence [2] [%]	proportion of patients with at least one adverse effect [2] [%]	Mean of maximal 5-symptom scores, Visit 2 [2]	global evaluation: patients in categories "Good improvement" and "No more symptoms", grouped [2] [%]	Mean of maximal 5-symptom scores, Visit 1 [2]	PDS0 (percentage of days with a maximal symptom score equal to 0), mean [2] [%]	PDS1 (percentage of days with a maximal symptom score inferior or equal to 1), mean [2] [%]
O=C(O)COCCN1CCN(C(c2ccccc2)c2ccc(Cl)cc2)CC1 (racemic) [Cetirizine, 2-[2-[4-[(4-chlorophenyl)phenylmethyl]-1-piperazinyl]ethoxy]-acetic dihydrochloride]	more frequent	1.82	46	2.66	6.60	43.26	4	4	0	6	23	1.76	56	2.77	6.41	39.81
CN[C@@H](C)[C@@H](O)c1ccccc1.Cl [Pseudoephedrine, (1S,2S)2-methylamino-1-phenylpropan-1-ol hydrochloride]		1.81	48	2.72	6.97	41.57	1	7	8.5	3	30	1.82	58	2.78	5.44	37.21

Reference: patent publication US6489329B2, “Pharmaceutical compositions for the treatment of rhinitis” (UCB S.A., priority 1996, dated 2002)
